# How the values were obtained:
# [1] = system: MIA PaCa-2 human pancreatic carcinoma; assay: MIA PaCa-2 CCK-8 proliferation assay; format: cell-based; conditions: Homo sapiens, MIA PaCa-2, 72 h, MIA PaCa-2 cells
# Outline: (§1)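 Percent inhibition derived from CCK-8 optical signal, normalised between DMSO-only cells (0%) and cell-free medium containing DMSO as background. Cells: MIA PaCa-2 carrying 2 KRAS(G12C) copies; NCI-H358, NCI-H23 carrying 1 copy apiece. Concentrations spanned 1.02 nM–20 μM in threefold increments.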
# HSP90a protein = molecular target: T1, HSP90a protein (Homo sapiens, UniProt P07900); assay: HSP90α-binding fluorescent polarization (FP) assay, FITC-geldanamycin probe; conditions: FP competition with FITC-geldanamycin, 5 nM, 120 min at 25° C.
# T1 construct: purchased BPS Bioscience 50298
# Procedure: HSP90α-Binding Fluorescent Polarization (FP) Assay
# Binding of test compounds to HSP90a protein was measured by fluorescent polarization (FP) using the HSP90a (N-terminal) Assay Kit (BPS Bioscience, #50298), following the manufacturer's instructions, except as noted. Fluorescently labeled HSP90-binding compounds, either the provided FITC-geldanamycin (5 nM final concentration) or RNK04010, a triazolone-based HSP90 binding small molecule labeled with BODIPY through a piperizine-phenyl linker (5 nM final concentration) were employed. A 2.5-fold serial dilution of each test compound ranging from 20 μM to 5.2 nM was assayed for binding to HSP90a. After the final step of adding HSP90a protein to each assay well, plates were mixed by brief shaking, incubated at 25° C. for 120 min for FITC-geldanamycin or 300 min for RNK04010, and fluorescence was measured using a PerkinElmer EnVision Plate Reader.
# [2] = system: NCI-H358 human non-small cell lung cancer; assay: NCI-H358 CCK-8 proliferation assay; format: cell-based; conditions: NCI-H358 cells, 72 hr
# Outline: as §1
# KRAS(G12C) [3] = molecular target: T2, KRAS(G12C) (Homo sapiens, UniProt P01116, G12C); assay: KRAS(G12C) Western blot protein degradation assay in MIA PaCa-2 cells; format: cell-based; design: host or cells: LU65A; conditions: 48 hr; for inhibition at 0.1562 µM: 156.2 nM; for inhibition at 0.3125 µM: 312.5 nM; for inhibition at 0.625 µM: 625 nM; for inhibition at 1.25 µM: 1250 nM; for inhibition at 2.5 µM: 2500 nM; for inhibition at 5 µM: 5000 nM; for inhibition at 10 µM: 10,000 nM
# KRAS(G12C) [4] = molecular target: T2, KRAS(G12C); assay: KRAS(G12C)/SOS1 homogeneous time-resolved fluorescence (HTRF) assay; design: purchased Cisbio 63ADK000CB16PEG; conditions: absence of GTP, 4° C. for 3 hr, read-out: KRAS (G12C) binding
# Outline: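 Three-hour incubation at 4 °C of 3-fold compound dilutions (lowest 1.02 nM) with KRAS(G12C), SOS1 and detection reagents, GTP absent. Disruption of the KRAS(G12C)/SOS1 complex detected by time-resolved fluorescence.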
# T2 sequence (P01116 1-188 isoform P01116-2 G12C): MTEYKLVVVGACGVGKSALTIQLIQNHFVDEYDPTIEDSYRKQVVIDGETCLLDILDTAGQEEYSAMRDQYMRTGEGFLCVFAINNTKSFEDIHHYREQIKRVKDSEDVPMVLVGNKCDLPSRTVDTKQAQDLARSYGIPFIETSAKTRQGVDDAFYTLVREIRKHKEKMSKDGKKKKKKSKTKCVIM
SMILES,EC50 [1],IC50 (HSP90a protein),EC50 [2],inhibition at 0.1562 µM (KRAS(G12C) [3]),inhibition at 0.3125 µM (KRAS(G12C) [3]),inhibition at 0.625 µM (KRAS(G12C) [3]),inhibition at 1.25 µM (KRAS(G12C) [3]),inhibition at 2.5 µM (KRAS(G12C) [3]),inhibition at 5 µM (KRAS(G12C) [3]),inhibition at 10 µM (KRAS(G12C) [3]),IC50 (KRAS(G12C) [4])
"C=C(F)C(=O)N1CCN(c2nc(OC[C@@H]3CCN(C(=O)C4CCN(Cc5ccc(-n6c(O)nnc6-c6cc(C(C)C)c(O)cc6O)cc5)CC4)C3)nc3c2CCN(c2cccc4cccc(Cl)c24)C3)C[C@@H]1CC#N [Compound 145, 2-((S)-4-(7-(8-chloronaphthalen-1-yl)-2-(((R)-1-(1-(4-(3-(2,4-dihydroxy-5-isopropylphenyl)-5-hydroxy-4H-1,2,4-triazol-4-yl)benzyl)piperidine-4-carbonyl)pyrrolidin-3-yl)methoxy)-5,6,7,8-tetrahydropyrido[3,4-d]pyrimidin-4-yl)-1-(2-fluoroacryloyl)piperazin-2-yl)acetonitrile, acetic acid]",0.1 to 1 µM,0.1 to 1 µM,0.1 to 1 µM,–,–,–,–,–,–,–,–
"C=CC(=O)N1CCN(c2nc(OC[C@@H]3CCCN3C(=O)C3CCN(Cc4ccc(-n5c(O)nnc5-c5cc(C(C)C)c(O)cc5O)cc4)CC3)nc3c2CCN(c2cccc4cccc(Cl)c24)C3)C[C@@H]1CC#N [Compound 139, 2-((S)-1-acryloyl-4-(7-(8-chloronaphthalen-1-yl)-2-(((S)-1-(1-(4-(3-(2,4-dihydroxy-5-isopropylphenyl)-5-hydroxy-4H-1,2,4-triazol-4-yl)benzyl)piperidine-4-carbonyl)pyrrolidin-2-yl)methoxy)-5,6,7,8-tetrahydropyrido[3,4-d]pyrimidin-4-yl)piperazin-2-yl)acetonitrile]",> 1 µM,0.1 to 1 µM,0.1 to 1 µM,< 33%,< 33%,< 33%,< 33%,< 33%,< 33%,< 33%,> 1 µM
"CCC(=O)N1CCN(c2nc(OCC3CCN(C(=O)C4CCN(Cc5ccc(-n6c(O)nnc6-c6cc(C(C)C)c(O)cc6O)cc5)CC4)CC3)nc3c2CCN(c2cccc4cccc(Cl)c24)C3)C[C@@H]1CC#N [Compound 147, (S)-2-(4-(7-(8-chloronaphthalen-1-yl)-2-((1-(1-(4-(3-(2,4-dihydroxy-5-isopropylphenyl)-5-hydroxy-4H-1,2,4-triazol-4-yl)benzyl)piperidine-4-carbonyl)piperidin-4-yl)methoxy)-5,6,7,8-tetrahydropyrido[3,4-d]pyrimidin-4-yl)-1-propionylpiperazin-2-yl)acetonitrile]",0.1 to 1 µM,< 0.1 µM,0.1 to 1 µM,–,–,–,–,–,–,–,–
"CCC(=O)N1CCN(c2nc(OC[C@@H]3CCN(C(=O)C4CCN(Cc5ccc(-n6c(O)nnc6-c6cc(C(C)C)c(O)cc6O)cc5)CC4)C3)nc3c2CCN(c2cccc4cccc(Cl)c24)C3)C[C@@H]1CC#N [Compound 141, 2-((S)-4-(7-(8-chloronaphthalen-1-yl)-2-(((R)-1-(1-(4-(3-(2,4-dihydroxy-5-isopropylphenyl)-5-hydroxy-4H-1,2,4-triazol-4-yl)benzyl)piperidine-4-carbonyl)pyrrolidin-3-yl)methoxy)-5,6,7,8-tetrahydropyrido[3,4-d]pyrimidin-4-yl)-1-propionylpiperazin-2-yl)acetonitrile]",–,0.1 to 1 µM,0.1 to 1 µM,–,–,–,–,–,–,–,–
"C=C(F)C(=O)N1CCN(c2nc(N3CCC(CN4CCN(Cc5ccc(-n6c(C(=O)NCC(F)(F)F)nnc6-c6cc(CC)c(O)cc6O)cc5)CC4)CC3)nc3c2CCN(c2cccc4cccc(Cl)c24)C3)C[C@@H]1CC#N [Compound 138, (S)-4-(4-((4-((1-(7-(8-chloronaphthalen-1-yl)-4-(3-(cyanomethyl)-4-(2-fluoroacryloyl)piperazin-1-yl)-5,6,7,8-tetrahydropyrido[3,4-d]pyrimidin-2-yl)piperidin-4-yl)methyl)piperazin-1-yl)methyl)phenyl)-5-(5-ethyl-2,4-dihydroxyphenyl)-N-(2,2,2-trifluoroethyl)-4H-1,2,4-triazole-3-carboxamide]",–,> 1 µM,> 1 µM,–,–,–,–,–,–,–,–

# The next lines start with the values.
EC50 [1],IC50 (HSP90a protein),EC50 [2],inhibition at 0.1562 µM (KRAS(G12C) [3]),inhibition at 0.3125 µM (KRAS(G12C) [3]),inhibition at 0.625 µM (KRAS(G12C) [3]),inhibition at 1.25 µM (KRAS(G12C) [3]),inhibition at 2.5 µM (KRAS(G12C) [3]),inhibition at 5 µM (KRAS(G12C) [3]),inhibition at 10 µM (KRAS(G12C) [3]),IC50 (KRAS(G12C) [4]),SMILES
< 0.1 µM,0.1 to 1 µM,–,< 33%,< 33%,< 33%,33 to 66%,33 to 66%,33 to 66%,33 to 66%,–,"C=C(F)C(=O)N1CCN(c2nc(OC[C@@H]3CCN(C(=O)C4CCN(Cc5ccc(-n6c(C(=O)NCC(F)(F)F)nnc6-c6cc(C(C)C)c(O)cc6O)cc5)CC4)C3)nc3c2CCN(c2cccc4cccc(Cl)c24)C3)C[C@@H]1CC#N [Compound 168, 4-(4-((4-((R)-3-(((7-(8-chloronaphthalen-1-yl)-4-((S)-3-(cyanomethyl)-4-(2-fluoroacryloyl)piperazin-1-yl)-5,6,7,8-tetrahydropyrido[3,4-d]pyrimidin-2-yl)oxy)methyl)pyrrolidine-1-carbonyl)piperidin-1-yl)methyl)phenyl)-5-(2,4-dihydroxy-5-isopropylphenyl)-N-(2,2,2-trifluoroethyl)-4H-1,2,4-triazole-3-carboxamide]"
–,0.1 to 1 µM,0.1 to 1 µM,–,–,–,–,–,–,–,–,"CCC(=O)N1CCN(c2nc(OCCC(=O)NCCc3ccc(CN4CCC(Cc5ccc(-n6c(C(=O)NCC(F)(F)F)nnc6-c6cc(C(C)C)c(O)cc6O)cc5)CC4)cc3)nc3c2CCN(c2cc(O)cc4ccccc24)C3)CC1 [Compound 151, 5-(2,4-dihydroxy-5-isopropylphenyl)-4-(4-((1-(4-(2-(3-((7-(3-hydroxynaphthalen-1-yl)-4-(4-propionylpiperazin-1-yl)-5,6,7,8-tetrahydropyrido[3,4-d]pyrimidin-2-yl)oxy)propanamido)ethyl)benzyl)piperidin-4-yl)methyl)phenyl)-N-(2,2,2-trifluoroethyl)-4H-1,2,4-triazole-3-carboxamide]"
–,> 1 µM,> 1 µM,–,–,–,–,–,–,–,–,"C=C(F)C(=O)N1CCN(c2nc(N3CCC(Cc4ccc(-n5c(C(=O)NCC(F)(F)F)nnc5-c5cc(C(C)C)c(O)cc5O)cc4)CC3)nc3c2CCN(c2cccc4cccc(Cl)c24)C3)C[C@@H]1CC#N [Compound 142, (S)-4-(4-((1-(7-(8-chloronaphthalen-1-yl)-4-(3-(cyanomethyl)-4-(2-fluoroacryloyl)piperazin-1-yl)-5,6,7,8-tetrahydropyrido[3,4-d]pyrimidin-2-yl)piperidin-4-yl)methyl)phenyl)-5-(2,4-dihydroxy-5-isopropylphenyl)-N-(2,2,2-trifluoroethyl)-4H-1,2,4-triazole-3-carboxamide]"

# — US20230391772A1, “METHODS AND COMPOSITIONS FOR TARGETED PROTEIN DEGRADATION” (Ranok Therapeutics (Hangzhou) Co. Ltd., priority 2020, published 2023)
